# Assay results reported in patent US20210268009A1, “Composition For Preventing Hair Loss Or Promoting Hair Regrowth” (LG Household & Health Care Ltd., priority 2018, published 2021).
# Experiments:
# [1] = system: Human-derived dermal papilla cells (DPCs); experiment: Dermal papilla cell proliferation, CCK-8 (Experimental Example 6); type: cell-based; conditions: for Dermal Papilla Cell Proliferation Ability (%): one day, control = 100; for proliferation of dermal papilla cells, result in words: summary of Table 8
# Procedure: Human-derived dermal papilla cells (DPCs) were purchased from PromoCell GmbH. The DPCs were cultured in a DMEM medium (Hyclone Inc., Utah, USA) containing 5% of fetal bovine serum (FBS; Gibco, NY, USA), 10 units/mL of penicillin and 100 μg/mL of streptomycin at 37° C. under 5% of CO2. The cultured DPCs were pipetted to a 96-well plate at 3,000 cells/well and cultured under the condition of 0.1% of serum for 24 hours. Then, the cultured cells were treated with 10 μg/mL of each of the samples of rhaponticin, rhein, chrysophanol, physicon-8-O-glucopyranoside and combinations thereof as shown in the following Table 8 for one day and then incubated, and DMSO (vehicle) diluted to 1:1000 in serum-free DMEM was used as a control and 2 μg/mL of minoxidil was used as a positive control . After incubation, a cell counting kit (CCK) was used to evaluate proliferation of cells. The culture medium was treated with CCK-8 at a ratio of 1:10, followed by incubation for 1 hour. After 1 hour, the absorbance of each well was determined at 450 nm. All tests were repeated three times and the average of absorbance value was calculated. The results are shown by the percentage of a test group as the result of the control is taken as 100.
# VEGF = experiment: Real-time PCR gene expression in dermal papilla cells: VEGF; type: cell-based, human; conditions: for Expression of Genes (%): VEGF: non-treated group = 100; for expression of VEGF, result in words: summary of Table 10
# From the text: (§1) In general, it is known that VEGF, IGF-1, FGF, or the like, secreted in dermal papilla cells induce an anagen stage of hair. In addition, versican is known as a marker of an anagen stage of hair and DKK-1 is known as a marker of a catagen stage of hair. Therefore, effects of rhaponticin, rhein, chrysophanol and physicon-O-d-glucopyranoside upon the signals of accelerating an anagen stage and those of inducing a catagen stage in dermal papilla cells were examined according to the present disclosure. In a 6-well culture plate, dermal papilla cells were seeded to each well at 1×10^5 and treated with 10 μg/mL of each of the samples of rhaponticin, rhein, chrysophanol, physicon-O-d-glucopyranoside and combinations thereof as shown in the following Table 10. Then, real-time PCR was used to determine expression of each of VEGF, versican and DKK-1 by using Taqman® probe (Thermo Fisher, Massachusetts, USA) as shown in the following Table 9. [table]
# DKK-1 = experiment: Real-time PCR gene expression in dermal papilla cells: DKK-1; type: cell-based, human; conditions: for Expression of Genes (%): DKK-1: non-treated group = 100; for expression of DKK-1, result in words: summary of Table 10
# From the text: as §1
# Versican = experiment: Real-time PCR gene expression in dermal papilla cells: versican; type: cell-based, human; conditions: for Expression of Genes (%): Versican: non-treated group = 100; for expression of versican, result in words: summary of Table 10
# From the text: as §1
# β-catenin = experiment: Expression of β-catenin in dermal papilla cells (SDS-PAGE / anti-β-catenin antibody); type: cell-based, human; conditions: escin 0.2-5 μg/mL, 1 day; GAPDH control; FIG. 2
# From the text: In dermal papilla cells in a catagen stage and a telogen stage, during which Wnt signals are inhibited, β-catenin is decomposed by GSK3-beta. However, in dermal papilla cells in an anagen stage, during which Wnt signals are amplified, activity of GSK3-beta is inhibited and β-catenin is not decomposed, resulting in an increase in expression of β-catenin. Human dermal papilla cells were pipetted to six well plates at about 500,000 cells/well, and treated with escin for 1 day at a concentration of 0.2, 0.5, 1.2 and 5 μg/mL, followed by incubation. After incubation, M-PER lysis buffer was used to cause lysis of the cells and the same amount of cell lysate was loaded on SDS-PAGE gel. The cell lysate loaded on SDS-PAGE gel was transferred to a nitrocellulose membrane and anti-β-catenin antibody was attached to the nitrocellulose membrane to detect protein. GAPDH was used as a control for correcting protein content. The amount of β-catenin increased by escin was determined.
# [2] = system: Wnt/β-catenin promoter activity (Wnt reporter HEK293SA cells); experiment: Wnt/β-catenin promoter luciferase reporter analysis; type: cell-based; conditions: escin 5, 10 and 20 μg/mL, FIG. 1
# Procedure: In general, Wnt/β-catenin signals activated in dermal papilla cells are generated while a transition from a […] to an anagen stage occurs in the hair growth cycle, i.e. during a period from beginning of hair growth to an activation stage of hair growth. In addition, in a telogen stage and catagen stage, Wnt/β-catenin signals become weak or disappear to cause degradation of hair follicles and depilation. In this Experimental Example, it is determined how escin contributes to amplification of Wnt/β-catenin signals.
# As a positive control which amplifies Wnt/β-catenin signals, wnt3a protein was used. In addition, dimethyl sulfoxide (DMSO) was used as a negative control. In a 96-well culture plate, approximately 3×10^4 of Wnt reporter HEK293SA cells were seeded to each well and treatment with escin was carried out at a concentration of 5 μg/mL, 10 μg/mL and 20 μg/mL. Then, a luciferase assay kit (E1960) available from Promega Corp. was used to carry out reporter analysis according to the test method provided by the company. In addition, luminometer Victor (Perkin Elmer, Waltham, Mass., USA) was used to determine Wnt/β-catenin promoter activity.
# [3] = system: Human-derived dermal papilla cells (DPCs); experiment: Dermal papilla cell proliferation, CCK-8 (Experimental Example 2, escin); type: cell-based; conditions: one day; for Dermal Papilla Cell Proliferation Ability (%): control = 100
# Procedure: Human-derived dermal papilla cells (DPCs) were purchased from PromoCell GmbH. DPCs were cultured under the conditions of 37° C. and 5% CO2 by using a follicle dermal papilla cell growth medium and supplement mix recommended by PromoCell GmbH. The cultured DPCs were pipetted to a 96-well plate at 3,000 cells/well and cultured for 24 hours in the presence of 0.1% of blood serum. Then, the cultured cells were treated with escin at a concentration of 0.2, 0.5, 1.2 and 5 μg/mL for one day and then incubated, and DMSO (vehicle) diluted to 1:1000 in serum-free DMEM was used as a control. After incubation, a cell counting kit (CCK) was used to evaluate proliferation of cells. The culture medium was treated with CCK-8 at a ratio of 1:10, followed by incubation for 1 hour. After 1 hour, the absorbance of each well was determined at 450 nm. All tests were repeated three times and the average of absorbance value was calculated. The results are shown by the percentage of a test group with the result of the control taken as 100.
Compound,Dermal Papilla Cell Proliferation Ability (%) ([1]; 10 μg/mL),"proliferation of dermal papilla cells, result in words [1]",Expression of Genes (%): VEGF (VEGF; 10 μg/mL) [%],"expression of VEGF, result in words (VEGF)",Expression of Genes (%): DKK-1 (DKK-1; 10 μg/mL) [%],"expression of DKK-1, result in words (DKK-1)",Expression of Genes (%): Versican (Versican; 10 μg/mL) [%],"expression of versican, result in words (Versican)",also measured
O=C(O)c1cc(O)c2c(c1)C(=O)c1cccc(O)c1C2=O [Rhein],152.7,excellent effect of accelerating proliferation of dermal papilla cells,144,increase expression of VEGF,76,reduce expression of DKK-1,154,increase expression,
Escin,,,,,,,,,"amount of β-catenin in dermal papilla cells, result in words (β-catenin): significant increase in amount of β-catenin; Wnt/β-catenin signal effect compared to the positive control wnt3a protein [2]: higher effect as compared to the positive control; amplification of Wnt/β-catenin signals as compared to the non-treated negative control ([2]; no concentration dependence, clear effect at about 20 μg/mL): approximately 11 times; Dermal Papilla Cell Proliferation Ability (%) ([3]; 0.2 μg/mL): 168.8%; Dermal Papilla Cell Proliferation Ability (%) ([3]; 0.5 μg/mL): 198.7%; Dermal Papilla Cell Proliferation Ability (%) ([3]; 1 μg/mL): 194.4%; Dermal Papilla Cell Proliferation Ability (%) ([3]; 2 μg/mL): 204.8%; Dermal Papilla Cell Proliferation Ability (%) ([3]; 5 μg/mL): 208.3%; DPC proliferation, result in words ([3]; escin 0.2-5 μg/mL): shows an effect of DPC proliferation"
Cc1cc(O)c2c(c1)C(=O)c1cccc(O)c1C2=O [Chrysophanol],152.0,excellent effect of accelerating proliferation of dermal papilla cells,250,increase expression of VEGF,123,reduce expression of DKK-1,158,increase expression,
COc1ccc(/C=C/c2cc(O)cc(O[C@@H]3O[C@H](CO)[C@@H](O)[C@H](O)[C@H]3O)c2)cc1O [Rhaponticin],162.7,excellent effect of accelerating proliferation of dermal papilla cells,210,increase expression of VEGF,112,reduce expression of DKK-1,130,increase expression,
"Nc1cc(N2CCCCC2)nc(N)[n+]1[O-] [Minoxidil, 2,4-diamino-6-piperidinopyrimidine-3-oxide, reference compound]",,,,,,,,,Dermal Papilla Cell Proliferation Ability (%) ([1]; 2 μg/mL): 187.2%; Expression of Genes (%): VEGF (VEGF; 2 μg/mL): 110%; Expression of Genes (%): DKK-1 (DKK-1; 2 μg/mL): 128%; Expression of Genes (%): Versican (Versican; 2 μg/mL): 134%
COc1cc(OC2OC(CO)C(O)C(O)C2O)c2c(c1)C(=O)c1cc(C)cc(O)c1C2=O (stereo not drawn) [Physicon-8-O-d-glucopyranoside],148.3,excellent effect of accelerating proliferation of dermal papilla cells,164,increase expression of VEGF,75,reduce expression of DKK-1,175,increase expression,
